Biological target: T1, mAChR M1 (Homo sapiens, UniProt P11229)
T1 construct: expressed in transfected cells; host or cells: CHO-K1
T1 sequence (P11229 1-460): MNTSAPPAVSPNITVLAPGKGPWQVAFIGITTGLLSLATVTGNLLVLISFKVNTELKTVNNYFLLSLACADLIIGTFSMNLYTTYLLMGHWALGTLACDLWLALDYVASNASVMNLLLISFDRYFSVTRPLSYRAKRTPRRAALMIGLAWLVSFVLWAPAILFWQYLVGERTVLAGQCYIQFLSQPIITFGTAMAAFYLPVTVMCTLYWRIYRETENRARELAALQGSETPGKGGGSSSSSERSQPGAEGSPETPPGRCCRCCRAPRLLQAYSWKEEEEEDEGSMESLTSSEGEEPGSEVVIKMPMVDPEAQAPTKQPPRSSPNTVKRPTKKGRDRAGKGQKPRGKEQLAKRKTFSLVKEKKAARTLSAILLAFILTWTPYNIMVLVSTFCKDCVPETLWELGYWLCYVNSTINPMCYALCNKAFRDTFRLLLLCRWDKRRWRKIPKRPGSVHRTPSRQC
Experiment: mAChR M1 cell-based functional assay (calcium mobilization, potentiation of EC20 acetylcholine response in CHO-K1 cells)
Conditions: for Emax: CHO-K1, maximal response of curve fit or response at 30 μM test compound, as % of response to an about EC80 ACh concentration, read-out: Emax (% ACh maximum at 30 μM); for EC50: positive allosteric modulation of EC20 acetylcholine response, >10,000 estimated where no plateau in the curve
Source text: Chinese hamster ovary (CHO-K1) cells stably expressing rat (r)M1 were purchased from the American Type Culture Collection and cultured according to their indicated protocol. CHO cells stably expressing human (h)M2, hM3, and hM5 were described previously (Levey, A. I., et al., J. Neurosci. 1991, 11, 3218-3226.); hM1 and hM4 cDNAs were purchased from Missouri S&T cDNA Resource; rM4 cDNA was provided by T. I. Bonner (National Institutes of Health, Bethesda, Md.). rM2 and rM3 were cloned from a rat brain cDNA library and sequence verified. hM1, rM2, rM3, hM4, and rM4 cDNAs were used to stably transfect CHO-K1 cells purchased from the American Type Culture Collection using Lipofectamine-2000. To make stable rM2, hM2, hM4, and rM4 cell lines for use in calcium mobilization assays, these cells also were stably transfected with a chimeric G-protein (Gqi5) (provided by B. R. Conklin, University of California, San Francisco) using Lipofectamine 2000. rM1, hM1, rM3, hM3, rM5, and hM5 cells were grown in Ham's F-12 medium containing 10% heat-inactivated fetal bovine serum (FBS), 20 mM HEPES, and 50 μg/mL G418 sulfate. rM2-Gqi5, hM2Gqi5, and hM4Gqi5 cells were grown in the same medium also containing 500 μg/mL Hygromycin B. Stable rM4Gqi5 cells were grown in DMEM containing 10% heat-inactivated FBS, 20 mM HEPES, 400 μg/mL G418 sulfate, and 500 μg/mL Hygromycin B.
For high throughput measurement of agonist-evoked increases in intracellular calcium, CHO-K1 cells stably expressing muscarinic receptors were plated in growth medium lacking G418 and hygromycin at 15,000 cells/20 μL/well in Greiner 384-well black-walled, tissue culture (TC)-treated, clear-bottom plates (VWR). Cells were incubated overnight at 37° C. and 5% CO2. The next day, cells were washed using an ELX 405 (BioTek) with four washes (80 μL) of assay buffer then […], 20 μL of Fluo-4/acetoxymethyl ester (Invitrogen, Carlsbad, Calif.) prepared as a 2.3 mM stock in DMSO and mixed in a 1:1 ratio with 10% (w/v) Pluronic F-127 and diluted in assay buffer was added to the wells and the cell plates were incubated for […] at 37° C. and 5% CO2. Dye was removed by washing with the ELX 405 (four 80 μL washes of assay buffer) then aspirated to 20 μL. Compound master plates were formatted in an 11 point CRC format (1:3 dilutions) in 100% DMSO with a starting concentration of 10 mM using the BRAVO liquid handler (Agilent). Test compound CRCs were then transferred to daughter plates ([…]) using the Echo acoustic plate reformatter (Labcyte, Sunnyvale, Calif.) and then diluted into assay buffer (40 μL) to a 2× stock using a Thermo Fisher Combi (Thermo Fisher Scientific, Waltham, Mass.).
Calcium flux was measured using the Functional Drug Screening System (FDSS) 6000 (Hamamatsu Corporation, Tokyo, Japan) as an increase in the fluorescent static ratio. Compounds were applied to cells (20 μL, 2×) using the automated system of the FDSS 6000 at 4 s into the 300 s protocol and the data were collected at 1 Hz. At 144 s into the 300 s protocol, 10 μL of an EC20 concentration of the muscarinic receptor agonist acetylcholine was added (5×), followed by the addition of 12 μL an EC80 concentration of acetylcholine at the 230 s time point (5×). Agonist activity was analyzed as a concentration-dependent increase in calcium mobilization upon compound addition. Positive allosteric modulator activity was analyzed as a concentration-dependent increase in the EC20 acetylcholine response. Antagonist activity was analyzed as a concentration-dependent decrease in the EC80 acetylcholine response. Concentration-response curves were generated using a four-parameter logistical equation in XLFit curve fitting software (IDBS, Bridgewater, N.J.) for Excel (Microsoft, Redmond, Wash.) or Prism (GraphPad Software, Inc., San Diego, Calif.).
The calcium mobilization assay was also used to determine “efficacy”. […]

Row | SMILES | Emax | EC50
1 | Cn1cc(-c2ccc(Cn3cc(C(=O)O)c4ccccc43)c(F)c2)cn1 [Compound B27] | 48% | > 10 µM
2 | Cn1cc(-c2ccc(Cn3c(=O)sc4ccccc43)c(F)c2)cn1 [Compound B14] | 45% | > 10 µM
3 | Cn1cc(-c2ccc(Cn3cc(S(=O)(=O)CCNC(=O)c4ccncc4)c4c(F)cc(F)cc43)c(F)c2)cn1 [Compound B31] | 30% | > 10 µM
4 | Cn1cc(-c2ccc(CN3c4ccccc4CS3(=O)=O)c(F)c2)cn1 [Compound B24, 1-(2-fluoro-4-(1-methyl-1H-pyrazol-4-yl)benzyl)-1,3-dihydrobenzo[c]isothiazole 2,2-dioxide] | 39% | > 10 µM
5 | Cn1cc(-c2ccc(CN3C(=O)COc4ccccc43)c(F)c2)cn1 [Compound B23] | 44% | > 10 µM
6 | Cn1cc(-c2ccc(CN3CC(C(=O)O)c4ccccc43)c(F)c2)cn1 (stereo not shown) [Compound B25] | 52% | > 10 µM
7 | Cn1cc(-c2ccc(CNc3ccccc3S(C)(=O)=O)c(F)c2)cn1 [Compound B15] | 34% | > 10 µM
8 | Cn1cc(-c2ccc(CN3C(=O)C[S+]([O-])c4ccccc43)c(F)c2)cn1 (stereo not shown) [Compound B20, 4-(2-fluoro-4-(1-methyl-1H-pyrazol-4-yl)benzyl)-2H-benzo[b][1,4]thiazin-3(4H)-one 1-oxide] | 41% | > 10 µM
9 | Cn1cc(-c2ccc(Cn3cc(C(=O)Nc4cccnc4)c4ccccc43)c(F)c2)cn1 [Compound B9, 1-(2-fluoro-4-(1-methyl-1H-pyrazol-4-yl)benzyl)-N-(pyridin-3-yl)-1H-indole-3-carboxamide] | 50% | 5.4 µM
10 | Cn1cc(-c2ccc(Cn3cc(S(=O)(=O)CCNC(=O)c4ccccn4)c4c(F)cc(F)cc43)c(F)c2)cn1 [Compound B29] | 34% | > 10 µM
11 | Cn1cc(-c2ccc(CN3Cc4ccccc4C3C(=O)O)c(F)c2)cn1 (stereo not shown) [Compound B26] | 61% | > 10 µM
12 | Cn1cc(-c2ccc(CN3C(=O)CSc4ccccc43)c(F)c2)cn1 [Compound B16, 4-(2-fluoro-4-(1-methyl-1H-pyrazol-4-yl)benzyl)-2H-benzo[b][1,4]thiazin-3(4H)-one] | 32% | > 10 µM
13 | Cc1cc(NC(=O)c2cn(Cc3ccc(-c4cnn(C)c4)cc3F)c3ccccc23)no1 [Compound B8] | 43% | 5 µM
14 | Cn1cc(-c2ccc(Cn3cc(C(=O)NCCc4ccccn4)c4ccccc43)c(F)c2)cn1 [Compound B28] | 35% | > 10 µM
15 | Cn1cc(-c2ccc(Cn3cc(S(=O)(=O)CCNC(=O)c4cocn4)c4c(F)cc(F)cc43)c(F)c2)cn1 [Compound B32] | 57% | > 10 µM
16 | Cn1cc(-c2ccc(CN3CC[S+]([O-])c4ccccc43)c(F)c2)cn1 (stereo not shown) [Compound B18] | 31% | > 10 µM
17 | Cn1cc(-c2ccc(CN3C(=O)NCc4ccccc43)c(F)c2)cn1 [Compound B19] | 46% | > 10 µM
18 | Cn1cc(-c2ccc(CN3C(=O)CS(=O)(=O)c4ccccc43)c(F)c2)cn1 [Compound B21, 4-(2-fluoro-4-(1-methyl-1H-pyrazol-4-yl)benzyl)-2H-benzo[b][1,4]thiazin-3(4H)-one 1,1-dioxide] | 36% | > 10 µM
19 | Cn1cc(-c2ccc(CN3C(=O)CCc4ccccc43)c(F)c2)cn1 [Compound B22] | 44% | > 10 µM

Next, values leading:

Row | Emax | EC50 | SMILES
20 | 35% | > 10 µM | Cn1cc(-c2ccc(Cn3cc(S(=O)(=O)CCNC(=O)c4cccc(F)c4)c4c(F)cc(F)cc43)c(F)c2)cn1 [Compound B30]
21 | 39% | > 10 µM | Cn1cc(-c2ccc(CNc3ccccc3[S+](C)[O-])c(F)c2)cn1 (stereo not shown) [Compound B17]
22 | 45% | 3.6 µM | Cn1cc(-c2ccc(Cn3c(=O)ccc4ccccc43)c(F)c2)cn1 [Compound B6]
23 | 61% | 3.1 µM | Cn1cc(-c2ccc(CN3C(=O)OCc4ccccc43)c(F)c2)cn1 [Compound B3, 1-(2-fluoro-4-(1-methyl-1H-pyrazol-4-yl)benzyl)-1H-benzo[d][1,3]oxazin-2(4H)-one]
24 | 64% | 3.9 µM | Cn1cc(-c2ccc(Cn3cc(S(C)(=O)=O)c4ccccc43)c(F)c2)cn1 [Compound B7]
25 | 27% | 2.8 µM | Cn1cc(-c2ccc(Cn3cc(S(=O)(=O)CCNC(=O)c4ccno4)c4c(F)cc(F)cc43)c(F)c2)cn1 [Compound B2]
26 | 31% | 2.4 µM | COc1cc2ccccc2n(Cc2ccc(-c3cnn(C)c3)cc2F)c1=O [Compound B1, 1-(2-fluoro-4-(1-methyl-1H-pyrazol-4-yl)benzyl)-3-methoxyquinolin-2(1H)-one]
27 | 52% | 3.4 µM | Cn1cc(-c2ccc(Cn3cc(S(=O)(=O)CCNC(=O)c4cnccn4)c4c(F)cc(F)cc43)c(F)c2)cn1 [Compound B4, N-(2-((4,6-difluoro-1-(2-fluoro-4-(1-methyl-1H-pyrazol-4-yl)benzyl)-1H-indol-3-yl)sulfonyl)ethyl)pyrazine-2-carboxamide]
28 | 38% | 3.5 µM | Cn1cc(-c2ccc(CN3Cc4ccccc4C3)c(F)c2)cn1 [Compound B5]
29 | 45% | 7.6 µM | Cn1cc(-c2ccc(Cn3cc(S(=O)(=O)CCNC(=O)c4ccnnc4)c4c(F)cc(F)cc43)c(F)c2)cn1 [Compound B11]
30 | 36% | 5.6 µM | Cn1cc(-c2ccc(Cn3cc(S(=O)(=O)CCNC(=O)c4cccnn4)c4c(F)cc(F)cc43)c(F)c2)cn1 [Compound B10]
31 | 31% | 8.1 µM | Cn1cc(-c2ccc(Cn3cc(S(=O)(=O)CCNC(=O)c4ccn[nH]4)c4c(F)cc(F)cc43)c(F)c2)cn1 [Compound B12]
32 | 29% | 9.4 µM | Cn1cc(-c2ccc(Cn3nc4ccccn4c3=O)c(F)c2)cn1 [Compound B13]
